Earlier results, collected in article PMC6929995, “Rod-shape theranostic nanoparticles facilitate antiretroviral drug biodistribution and activity in human immunodeficiency virus susceptible cells and tissues” (Theranostics, 2020).

Tested on: HIV-1

Cc1cc(/C=C/C#N)cc(C)c1Nc1ccnc(Nc2ccc(C#N)cc2)n1 [RPV, rilpivirine]
potency: sub-nanomolar range
